# Values of other authors as cited in patent US20090053319A1 (priority 2007, published 2009).
# Conditions: pure capsaicinoid; background statement
smiles,measurement,value
COc1cc(CNC(=O)CCCC/C=C/C(C)C)ccc1O [Capsaicin],pungency (Scoville scale),"15,000,000-16,000,000 Scoville units"
